Key:
[1] = test system: Monochoria vaginalis, Presl.; experiment: Preemergence weed control under flooded paddy conditions, MOOVA (Monochoria); format: in vivo; settings: flooded paddy; for MOOVA: preemergence weeds, herbicidal effect rating 0-9, three to four weeks after treatment; for herbicidal effect rating, MOOVA: preemergence; on herbicidal effect rating, MOOVA: meaning of each grade not given here
[2] = test system: Cyperus serotinus, Rottb.; experiment: Preemergence weed control under flooded paddy conditions, CYPSE (Flatsedge); format: in vivo; settings: for CYPSE: preemergence weeds, herbicidal effect rating 0-9, three to four weeks after treatment; for herbicidal effect rating, CYPSE: preemergence; on herbicidal effect rating, CYPSE: meaning of each grade not given here
Cyperus iria = experiment: Preemergence weed control under flooded paddy conditions, CYPIR (Rice Flatsedge); format: in vivo; settings: flooded paddy; for CYPIR: preemergence weeds, herbicidal effect rating 0-9, three to four weeks after treatment; for herbicidal effect rating, CYPIR: preemergence; on herbicidal effect rating, CYPIR: meaning of each grade not given here
[3] = test system: Oryza sativa, (L.) Tebonnet; experiment: Rice tolerance to post-transplant applications under flooded paddy conditions (Example 187), ORYSAT (Rice, Tebonnet); settings: for ORYSAT: herbicidal effect rating 0-9, three to four weeks after treatment; on herbicidal effect rating ORYSAT: meaning of each grade not given here
Sagittaria pygmaea, L. = experiment: Preemergence weed control under flooded paddy conditions, SAGPY (Arrowhead (Pygmaea)); format: in vivo; settings: flooded paddy; for SAGPY: preemergence weeds, herbicidal effect rating 0-9, three to four weeks after treatment; for herbicidal effect rating, SAGPY: preemergence; on herbicidal effect rating, SAGPY: meaning of each grade not given here
[4] = test system: Echinochloa oryzoides (Ard.) Fritsch.; experiment: Preemergence weed control under flooded paddy conditions, ECHORC (Watergrass (Calif.)); format: in vivo; settings: flooded paddy; for ECHORC: preemergence weeds, herbicidal effect rating 0-9, three to four weeks after treatment; for herbicidal effect rating, ECHORC: preemergence; on herbicidal effect rating, ECHORC: meaning of each grade not given here
[5] = Rate 0.0320 kg/ha, rated three to four weeks after treatment
[6] = Rate 0.0620 kg/ha, rated three to four weeks after treatment
[7] = Rate 0.1250 kg/ha, rated three to four weeks after treatment
[8] = Rate 0.2500 kg/ha, rated three to four weeks after treatment
[9] = Rate 0.0320 kg/ha, rated 3-4 weeks after treatment
[10] = Rate 0.0620 kg/ha, rated 3-4 weeks after treatment
[11] = Rate 0.1250 kg/ha, rated 3-4 weeks after treatment
[12] = Rate 0.2500 kg/ha, rated 3-4 weeks after treatment
[13] = 0.0313 kg/ha, rated three to four weeks after treatment
[14] = 0.0625 kg/ha, rated three to four weeks after treatment
[15] = 0.1250 kg/ha, rated three to four weeks after treatment
[16] = 0.2500 kg/ha, rated three to four weeks after treatment

**Q.** How did the MOOVA ([1]; 0.0320 kg/ha) turn out when COC(=O)COc1cc2c(cc1-c1nsc3ccc(-n4c(=O)cc(C(F)(F)F)n(C)c4=O)cc13)CCC2 [Example 434, Acetic acid, {{6-{5-[3,6-dihydro-3-methyl-2,6-dioxo-4-(trifluoromethyl)-1(2H)-pyrimidinyl]-1,2-benzisothiazol-3-yl}-5-indanyl}oxy}-, methyl ester] was run?
**A.** Its MOOVA is 9.0.

**Q.** And the MOOVA ([1]; 0.0620 kg/ha)?
**A.** The MOOVA was 9.0.

**Q.** And the MOOVA ([1]; 0.1250 kg/ha)?
**A.** The MOOVA was 9.0.

**Q.** And the MOOVA ([1]; 0.2500 kg/ha)?
**A.** Its MOOVA is 9.0.

**Q.** And the CYPSE ([2]; 0.0320 kg/ha)?
**A.** The CYPSE was 4.0.

**Q.** And the CYPSE ([2]; 0.1250 kg/ha)?
**A.** The CYPSE was 4.0.

**Q.** What about the CYPSE ([2]; 0.2500 kg/ha) of the same molecule?
**A.** The CYPSE was 7.0.

**Q.** What about the CYPIR (Cyperus iria; 0.0320 kg/ha) of the same molecule?
**A.** The CYPIR was 3.0.

**Q.** And the CYPIR (Cyperus iria; 0.0620 kg/ha)?
**A.** The CYPIR was 3.0.

**Q.** What about the CYPIR (Cyperus iria; 0.1250 kg/ha) of the same molecule?
**A.** The CYPIR was 7.0.

**Q.** And the CYPIR (Cyperus iria; 0.2500 kg/ha)?
**A.** The CYPIR was 8.0.

**Q.** And the ORYSAT ([3]; 0.0320 kg/ha)?
**A.** The ORYSAT was 4.0.

**Q.** And the ORYSAT ([3]; 0.0620 kg/ha)?
**A.** Its ORYSAT is 6.0.

**Q.** And the ORYSAT ([3]; 0.1250 kg/ha)?
**A.** Its ORYSAT is 6.0.

**Q.** And the ORYSAT ([3]; 0.2500 kg/ha)?
**A.** The ORYSAT was 7.0.

**Q.** And the SAGPY (Sagittaria pygmaea, L.; 0.0320 kg/ha)?
**A.** The SAGPY was 4.0.

**Q.** And the SAGPY (Sagittaria pygmaea, L.; 0.0620 kg/ha)?
**A.** The SAGPY was 4.0.

**Q.** And the SAGPY (Sagittaria pygmaea, L.; 0.1250 kg/ha)?
**A.** Its SAGPY is 5.0.

**Q.** What about the SAGPY (Sagittaria pygmaea, L.; 0.2500 kg/ha) of the same molecule?
**A.** Its SAGPY is 6.0.

**Q.** And the ECHORC ([4]; 0.0320 kg/ha)?
**A.** Its ECHORC is 6.0.

**Q.** And the ECHORC ([4]; 0.0620 kg/ha)?
**A.** The ECHORC was 7.0.

**Q.** What about the ECHORC ([4]; 0.1250 kg/ha) of the same molecule?
**A.** Its ECHORC is 7.0.

**Q.** And the ECHORC ([4]; 0.2500 kg/ha)?
**A.** Its ECHORC is 9.0.

**Q.** With Cn1c(C(F)(F)F)cc(=O)n(-c2cc3c(C(Br)Br)nsc3cc2F)c1=O [Example 372, 2,4(1H,3H)-Pyrimidinedione, 3-[3-(dibromomethyl)-6-fluoro-1,2-benzisothiazol-5-yl]-1-methyl-6-(trifluoromethyl)-] as the molecule, how does the “herbicidal effect rating, MOOVA” value [1, 5] read?
**A.** The value was 9.0.

**Q.** What about the “herbicidal effect rating, MOOVA” value [1, 6] of the same molecule?
**A.** Its value is 9.0.

**Q.** What about the “herbicidal effect rating, MOOVA” value [1, 7] of the same molecule?
**A.** Its value is 9.0.

**Q.** And the “herbicidal effect rating, MOOVA” value [1, 8]?
**A.** The value was 9.0.

**Q.** And the “herbicidal effect rating, CYPSE” value [2, 5]?
**A.** Its value is 1.0.

**Q.** And the “herbicidal effect rating, CYPSE” value [2, 6]?
**A.** Its value is 5.0.

**Q.** And the “herbicidal effect rating, CYPSE” value [2, 7]?
**A.** Its value is 8.5.

**Q.** And the “herbicidal effect rating, CYPSE” value [2, 8]?
**A.** The value was 9.0.

**Q.** What about the “herbicidal effect rating, CYPIR” value (Cyperus iria; [5]) of the same molecule?
**A.** The value was 8.5.

**Q.** What about the “herbicidal effect rating, CYPIR” value (Cyperus iria; [6]) of the same molecule?
**A.** Its value is 9.0.

**Q.** What about the “herbicidal effect rating, CYPIR” value (Cyperus iria; [7]) of the same molecule?
**A.** The value was 9.0.

**Q.** What about the “herbicidal effect rating, CYPIR” value (Cyperus iria; [8]) of the same molecule?
**A.** The value was 9.0.

**Q.** What about the “herbicidal effect rating ORYSAT” value [3, 5] of the same molecule?
**A.** Its value is 6.0.

**Q.** And the “herbicidal effect rating ORYSAT” value [3, 6]?
**A.** Its value is 8.0.

**Q.** What about the “herbicidal effect rating ORYSAT” value [3, 7] of the same molecule?
**A.** Its value is 8.0.

**Q.** And the “herbicidal effect rating ORYSAT” value [3, 8]?
**A.** The value was 9.0.

**Q.** What about the “herbicidal effect rating, SAGPY” value (Sagittaria pygmaea, L.; [5]) of the same molecule?
**A.** The value was 8.5.

**Q.** What about the “herbicidal effect rating, SAGPY” value (Sagittaria pygmaea, L.; [6]) of the same molecule?
**A.** Its value is 9.0.

**Q.** And the “herbicidal effect rating, SAGPY” value (Sagittaria pygmaea, L.; [7])?
**A.** Its value is 9.0.

**Q.** What about the “herbicidal effect rating, SAGPY” value (Sagittaria pygmaea, L.; [8]) of the same molecule?
**A.** Its value is 9.0.

**Q.** And the “herbicidal effect rating, ECHORC” value [4, 5]?
**A.** Its value is 9.0.

**Q.** And the “herbicidal effect rating, ECHORC” value [4, 6]?
**A.** The value was 9.0.

**Q.** And the “herbicidal effect rating, ECHORC” value [4, 7]?
**A.** The value was 9.0.

**Q.** What about the “herbicidal effect rating, ECHORC” value [4, 8] of the same molecule?
**A.** Its value is 9.0.

**Q.** With CON(C)C(=O)/C=C/c1nsc2ccc(-n3c(=O)cc(C(F)(F)F)n(C)c3=O)cc12 [Example 565, 1,2-Benzisothiazole-3-acrylamide, 5-[3,6-dihydro-3-methyl-2,6-dioxo-4-(trifluoromethyl)-1(2H)-pyrimidinyl]-N-methoxy-N-methyl-, (E)-] as the molecule, how does the “herbicidal effect rating, MOOVA” value [1, 9] read?
**A.** Its value is 9.0.

**Q.** And the “herbicidal effect rating, MOOVA” value [1, 10]?
**A.** Its value is 9.0.

**Q.** What about the “herbicidal effect rating, MOOVA” value [1, 11] of the same molecule?
**A.** The value was 9.0.

**Q.** What about the “herbicidal effect rating, MOOVA” value [1, 12] of the same molecule?
**A.** Its value is 9.0.

**Q.** What about the “herbicidal effect rating, CYPSE” value [2, 9] of the same molecule?
**A.** Its value is 0.0.

**Q.** And the “herbicidal effect rating, CYPSE” value [2, 10]?
**A.** The value was 0.0.

**Q.** What about the “herbicidal effect rating, CYPSE” value [2, 11] of the same molecule?
**A.** The value was 0.0.

**Q.** And the “herbicidal effect rating, CYPSE” value [2, 12]?
**A.** Its value is 0.0.

**Q.** And the “herbicidal effect rating, CYPIR” value (Cyperus iria; [9])?
**A.** Its value is 0.0.

**Q.** And the “herbicidal effect rating, CYPIR” value (Cyperus iria; [10])?
**A.** Its value is 3.0.

**Q.** What about the “herbicidal effect rating, CYPIR” value (Cyperus iria; [11]) of the same molecule?
**A.** Its value is 6.0.

**Q.** What about the “herbicidal effect rating, CYPIR” value (Cyperus iria; [12]) of the same molecule?
**A.** Its value is 6.0.

**Q.** What about the “herbicidal effect rating ORYSAT” value [3, 9] of the same molecule?
**A.** Its value is 0.0.

**Q.** What about the “herbicidal effect rating ORYSAT” value [3, 10] of the same molecule?
**A.** Its value is 0.0.

**Q.** And the “herbicidal effect rating ORYSAT” value [3, 11]?
**A.** Its value is 2.0.

**Q.** What about the “herbicidal effect rating ORYSAT” value [3, 12] of the same molecule?
**A.** Its value is 3.0.

**Q.** And the “herbicidal effect rating, SAGPY” value (Sagittaria pygmaea, L.; [9])?
**A.** The value was 0.0.

**Q.** And the “herbicidal effect rating, SAGPY” value (Sagittaria pygmaea, L.; [10])?
**A.** The value was 0.0.

**Q.** What about the “herbicidal effect rating, SAGPY” value (Sagittaria pygmaea, L.; [11]) of the same molecule?
**A.** The value was 0.0.

**Q.** What about the “herbicidal effect rating, SAGPY” value (Sagittaria pygmaea, L.; [12]) of the same molecule?
**A.** The value was 0.0.

**Q.** What about the “herbicidal effect rating, ECHORC” value [4, 9] of the same molecule?
**A.** Its value is 0.0.

**Q.** What about the “herbicidal effect rating, ECHORC” value [4, 10] of the same molecule?
**A.** Its value is 0.0.

**Q.** And the “herbicidal effect rating, ECHORC” value [4, 11]?
**A.** Its value is 0.0.

**Q.** What about the “herbicidal effect rating, ECHORC” value [4, 12] of the same molecule?
**A.** Its value is 0.0.

**Q.** What does the source list for Cc1ccc(OCC(=O)OCCCl)c(-c2nsc3ccc(-n4c(=O)cc(C(F)(F)F)n(C)c4=O)cc23)c1 [Example 71, 2-Chloroethyl {{2-{5-[3,6-dihydro-3-methyl-2,6-dioxo-4-(trifluoromethyl)-1(2H)-pyrimidinyl]-1,2-benzisothiazol-3-yl}-p-tolyl}oxy}acetate]?
**A.** herbicidal effect rating, MOOVA [1, 13]: 8.0; herbicidal effect rating, MOOVA [1, 14]: 9.0; herbicidal effect rating, MOOVA [1, 15]: 9.0; herbicidal effect rating, MOOVA [1, 16]: 9.0; herbicidal effect rating, CYPSE [2, 13]: 0.0; herbicidal effect rating, CYPSE [2, 14]: 0.0; herbicidal effect rating, CYPSE [2, 15]: 2.0; herbicidal effect rating, CYPSE [2, 16]: 9.0; herbicidal effect rating, CYPIR (Cyperus iria; [13]): 0.0; herbicidal effect rating, CYPIR (Cyperus iria; [14]): 0.0; herbicidal effect rating, CYPIR (Cyperus iria; [15]): 0.0; herbicidal effect rating, CYPIR (Cyperus iria; [16]): 2.0; herbicidal effect rating, ORYSAT (rice tolerance) [3, 13]: 2.0; herbicidal effect rating, ORYSAT (rice tolerance) [3, 14]: 3.5; herbicidal effect rating, ORYSAT (rice tolerance) [3, 15]: 5.5; herbicidal effect rating, ORYSAT (rice tolerance) [3, 16]: 7.0; herbicidal effect rating, SAGPY (Sagittaria pygmaea, L.; [13]): 0.0; herbicidal effect rating, SAGPY (Sagittaria pygmaea, L.; [14]): 0.0; herbicidal effect rating, SAGPY (Sagittaria pygmaea, L.; [15]): 0.0; herbicidal effect rating, SAGPY (Sagittaria pygmaea, L.; [16]): 4.0; herbicidal effect rating, ECHORC [4, 13]: 5.5; herbicidal effect rating, ECHORC [4, 14]: 7.5; herbicidal effect rating, ECHORC [4, 15]: 8.5; herbicidal effect rating, ECHORC [4, 16]: 9.0

From patent publication EP0908457B1, “3-(1,2-benzisothiazol- and isoxazol-5-Y1)-2,4(1H,3H)-pyrimidinedione or thione and 3-(1,2-benzisothiazol- and isoxazol-5-y1)-4(3H)-pyrimidinone or thione herbicidal agents” (BASF AKTIENGESELLSCHAFT, priority 1997, dated 1999)
